Results published in article PMC6598759, “In vitro genotoxicity of nitroimidazoles as a tool in the search of new trypanocidal agents” (Memórias do Instituto Oswaldo Cruz, 2019).
Where two headings read alike, the source gives them in different places.

Experiments:
[1] = system: whole human blood cells (WHBC); settings: cited from earlier work; for percentage decrease in cell viability: 2 h
[2] = system: bloodstream trypomastigotes form Y strain of T. cruzi; settings: read-out: IC50/24 h (concentration that produces 50% lysis of the parasites), trypomastigote forms; cited from earlier work
[3] = system: whole human blood cells (WHBC); assay: In vitro cytokinesis-block micronucleus assay (CBMN) with whole human blood cells
Experimental: In vitro cytokinesis-block micronucleus assay (CBMN) with whole human blood cells (WHBC) - Heparinised WHBC samples were obtained by venipuncture from volunteers as described above. […] WHBC cultures exposed to mitomycin C (MMC) (1.0 µg/mL in water) (Bristol, USA) for 2 h or to N-deacetyl-N-methylcolchicine in water (Demecolcine: Sigma-Aldrich) 0.02 µg/mL for 28 h were used as positive control cultures. After the treatment, the WHBC cultures were centrifuged (900 rpm, 10 min) and washed with 5 mL PBS. […] CytB has cytokinesis-block activity leading to the formation of binucleate cells. […] The fixed cell suspension was dropped on a clean glass slide and the slide was air-dried on a heating plate (60 °C). Air-dried slides were stained with 60 µg/mL acridine orange in Sörensen buffer (0.03 M KH2PO4, 0.03 M Na2HPO4) for 3s, then they were embedded in distilled water and covered with a coverslip. MN showing bright green fluorescence were analysed using a fluorescence microscope at 400 X magnification. MN were scored in 2,000 binucleated cells (BNC) for culture and the number of the micronucleate cells (MNC) in 2,000 BNC was determined. Cytotoxicity was measured using the cytokinesis-block proliferation index (CBPI) and the replication index (RI) which were calculated from 500 cells. The CBPI indicates the average number of nuclei per cell, and may be used to calculate cell proliferation. The RI indicates the relative number of cell cycles per cell during the period of exposure to cytoB in treated cultures compared to control cultures and can be used to calculate the % cytostasis. CBPI was calculated according to the formula: CBPI = [(No. mononucleate cells) + (2 x No. binucleate cells) + (3 x No. multinucleate cells)] / N, where N indicates the total number of cells scored. RI (%) was calculated according to the formula:
RI %=((No. binucleate cells) + (2 x No. multinucleate cells)) ÷ (Total number of cells)T/((No. binucleate cells) + (2 x No. multinucleate cells)) ÷ (Total number of cells)C x 100
where T indicates treated cultures and C control cultures
Cytotoxicity was evidenced in the occurrence of reduction in CBPI or RI of cultures treated by test substances when compared to control cultures. The measurement of cytotoxicity was used to select the concentrations of the test substance to be analysed for the presence of MN. […] However, it was adopted in this work as the maximum concentration in CBMN one that induced a proliferation inhibition not exceeding about 50% established by ICH S2 (R1) for lymphocyte cultures.
The chi-square test for trend was performed to analyse if the increase of MNC was concentration-related.[30]

[4] = system: whole human blood cells (WHBC); settings: 149-6,400 µM, 2 h, p > 0.1; cited from earlier work

Cn1c([N+](=O)[O-])cnc1-c1nnc(N)[nH]1 [Compound 4]
percentage decrease in cell viability ([1]; 149 µM): 1.0%
percentage decrease in cell viability ([1]; 238 µM): 1.0%
percentage decrease in cell viability ([1]; 382 µM): 1.0%
percentage decrease in cell viability ([1]; 610 µM): 0%
percentage decrease in cell viability ([1]; 1,562 µM): 1.0%
percentage decrease in cell viability ([1]; 2,500 µM): 1.0%
percentage decrease in cell viability ([1]; 4,000 µM): 0%
percentage decrease in cell viability ([1]; 6,400 µM): 0%
lethality variation range ([1]; 149-6,400 µM, 2 h at 37 °C, compared to solvent-control): 1-4%
IC50 [2]: 257 ± 53 µM
CBPI ([3]; 150 µM, 4 h): 1.220
NMNC/2000 binucleated cells ([3]; 150 µM, 4 h): 28
RI (%) ([3]; 150 µM, 4 h): 106%
CBPI ([3]; 640 µM, 4 h): 1.230
NMNC/2000 binucleated cells ([3]; 640 µM, 4 h): 36
RI (%) ([3]; 640 µM, 4 h): 107%
CBPI ([3]; 1,600 µM, 4 h): 1.218
NMNC/2000 binucleated cells ([3]; 1,600 µM, 4 h): 44
RI (%) ([3]; 1,600 µM, 4 h): 76%
CBPI ([3]; 4,000 µM, 4 h): 1.054
RI (%) ([3]; 4,000 µM, 4 h): 22%
CBPI ([3]; 10,000 µM, 4 h): 1.052
RI (%) ([3]; 10,000 µM, 4 h): 23%
maximum concentration used in MN analysis (inducing in the maximum 50% reduction of CBPI or RI) ([3]; 4 h, relative to solvent-control): 1,600 μM
concentrations with significant mutagenic effect (increase of MNC) ([3]; 4 h, p < 0.01 for 3, p < 0.05 for 4 and 7): 1,600 μM
result in the CBMN ([3]; overall call): clastogenic and/or aneugenic
DNA strand breaks compared to solvent-control [4]: did not cause DNA strand breaks
